The source of these data is PubChem BioAssay (NCI).

In general, TGI refers to the concentration at which net growth stops. Low readings indicate more potent growth arrest, high ones less potent growth arrest.

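Interpolation was linear, between the two tested concentrations surrounding the appropriate level; five concentrations were tested over 48 hours in 96-well plates. The concentration for full growth arrest is given as TGI.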

Test systems include UACC-257 melanoma; SNB-19 CNS; A498 renal; EKVX NSCLC; DU-145 prostate; COLO 205 colon; CCRF-CEM leukemia; ACHN renal; 786-0 renal; HOP-92 NSCLC.
What all share (test): DTP human tumour cell line panel, 48 h

`COC(=O)C1=C(O)CCCC(C2CCCCC(=O)C2C(=O)OC)=C1` (stereo not given): the TGI with UACC-257 melanoma was over 100 µM; in the experiment with SNB-19 CNS, over 100 µM; with A498 renal, 58.7 µM; with EKVX NSCLC it was over 100 µM; with DU-145 prostate, over 100 µM; in the experiment on COLO 205 colon, over 100 µM. The TGI was 89.3 µM with CCRF-CEM leukemia, over 100 µM in the experiment on ACHN renal, over 100 µM in the experiment on 786-0 renal and over 100 µM with HOP-92 NSCLC.

Turning to `CC1SC2(CCCCC2)N(NC(=O)CSc2nc3ccc(Cl)cc3c(=O)n2-c2ccccc2)C1=O` (stereo not given), the TGI is 55.5 µM in the experiment on UACC-257 melanoma; 66.9 µM in the experiment on SNB-19 CNS; 81.2 µM in the experiment with A498 renal; over 100 µM with EKVX NSCLC; 85.8 µM in the experiment with DU-145 prostate; 29.2 µM in the experiment with COLO 205 colon. In addition, the TGI with CCRF-CEM leukemia is over 100 µM; with ACHN renal it was 83.9 µM; in the experiment on 786-0 renal, 34.9 µM; with HOP-92 NSCLC it was 52.5 µM.

With `COc1ccc(NC(C(N)=O)c2cc3cc(Br)ccc3nc2Cl)cc1` (stereo not given), the TGI in the experiment on UACC-257 melanoma, in the experiment on SNB-19 CNS, in the experiment with A498 renal, with EKVX NSCLC, in the experiment with DU-145 prostate and in the experiment with COLO 205 colon was over 100 µM each time. In addition, the TGI in the experiment with CCRF-CEM leukemia is over 100 µM; in the experiment with ACHN renal it was over 100 µM; in the experiment on 786-0 renal, over 100 µM; with HOP-92 NSCLC it was 99.7 µM.

As for `Cc1cc2c(cc1C)C(=O)C1(C2)Cc2cc3c(cc2C1=O)CCC3` (stereo not given), the TGI in the experiment with UACC-257 melanoma, with SNB-19 CNS, in the experiment on A498 renal, in the experiment with EKVX NSCLC, in the experiment with DU-145 prostate and with COLO 205 colon was over 100 µM each time. Moreover, the concentration for total growth inhibition (TGI) in the experiment with CCRF-CEM leukemia, in the experiment with ACHN renal, in the experiment with 786-0 renal and with HOP-92 NSCLC was over 100 µM each time.

As for `O=c1[nH]nc(Cc2ccccc2)n1/N=C/c1cccnc1`, the TGI in the experiment on UACC-257 melanoma, in the experiment with SNB-19 CNS, in the experiment with A498 renal, in the experiment with EKVX NSCLC, in the experiment with DU-145 prostate and with COLO 205 colon was over 100 µM in each case. The TGI in the experiment with CCRF-CEM leukemia, with ACHN renal, with 786-0 renal and with HOP-92 NSCLC was over 100 µM throughout.

Regarding `N#Cc1cc(Sc2ccc(N)c(C#N)c2)ccc1N`, the TGI in the experiment on UACC-257 melanoma is over 100 µM; in the experiment with SNB-19 CNS, over 100 µM; with A498 renal, over 100 µM; with EKVX NSCLC, 50.5 µM; with DU-145 prostate, 89.6 µM; with COLO 205 colon, 23.7 µM. Besides, the TGI is 41.3 µM in the experiment on CCRF-CEM leukemia, over 100 µM in the experiment with ACHN renal, 43.3 µM in the experiment on 786-0 renal and over 100 µM in the experiment on HOP-92 NSCLC.

Take `COc1c(Br)cc2ccccc2c1-c1c(OC)c(Br)cc2ccccc12`: the TGI in the experiment with UACC-257 melanoma, with SNB-19 CNS, in the experiment with A498 renal, with EKVX NSCLC, with DU-145 prostate and in the experiment on COLO 205 colon was over 100 µM throughout. Besides, the TGI with CCRF-CEM leukemia, with ACHN renal, in the experiment with 786-0 renal and with HOP-92 NSCLC was over 100 µM in each case.

On to `N/C(=N\Nc1ccc(Cl)cc1)c1cnccn1`, for which the TGI in the experiment with UACC-257 melanoma is over 100 µM; with SNB-19 CNS, over 100 µM; with A498 renal, over 100 µM; with EKVX NSCLC, over 100 µM; in the experiment on DU-145 prostate, over 100 µM; in the experiment with COLO 205 colon, 40.1 µM. The TGI with CCRF-CEM leukemia, in the experiment with ACHN renal, in the experiment with 786-0 renal and in the experiment with HOP-92 NSCLC was over 100 µM each time.

Turning to `O=c1c2cnccc2cc2c3ccccc3ccn12`, the TGI in the experiment on UACC-257 melanoma, in the experiment with SNB-19 CNS, in the experiment on A498 renal, with EKVX NSCLC, with DU-145 prostate and in the experiment on COLO 205 colon was over 100 µM in each case. The TGI with CCRF-CEM leukemia, in the experiment with ACHN renal, in the experiment with 786-0 renal and with HOP-92 NSCLC was over 100 µM each time.

As for `CCCCc1ccc(Nc2nc(Cl)c3c(ncn3C3CC(Oc4ccc(C)cc4)C(COc4ccc(C)cc4)O3)n2)cc1` (stereo not given), the TGI in the experiment on UACC-257 melanoma, in the experiment with SNB-19 CNS, with A498 renal, in the experiment with EKVX NSCLC, with DU-145 prostate and with COLO 205 colon was over 100 µM each time. For the same compound, the TGI in the experiment with CCRF-CEM leukemia, in the experiment on ACHN renal, in the experiment on 786-0 renal and with HOP-92 NSCLC was over 100 µM in each case.

For `CN1CCc2c(sc3ncn(Nc4ccc(Cl)cc4)c(=N)c23)C1`, the TGI in the experiment with UACC-257 melanoma, with SNB-19 CNS, in the experiment on A498 renal, in the experiment with EKVX NSCLC, in the experiment on DU-145 prostate and with COLO 205 colon was over 100 µM throughout. In addition, the TGI in the experiment with CCRF-CEM leukemia, with ACHN renal, in the experiment with 786-0 renal and in the experiment on HOP-92 NSCLC was over 100 µM each time.

As for `CN(CCCNC(=O)c1nn(C)c2c1Cc1ccccc1-2)CCCNC(=O)c1nn(C)c2c1Cc1ccccc1-2`, the TGI was 30.1 µM with UACC-257 melanoma; 26.4 µM with SNB-19 CNS; 31.7 µM in the experiment with A498 renal; 39.2 µM with EKVX NSCLC; 32.4 µM with DU-145 prostate; 30.2 µM with COLO 205 colon. Further, the TGI in the experiment with CCRF-CEM leukemia came out at 10.9 µM; with ACHN renal it was 31 µM; in the experiment with 786-0 renal, 24.5 µM; in the experiment with HOP-92 NSCLC, 35 µM.
